The subject of the experiment is TNF-α. The experiment is described as follows: Production of TNF-α by human monocytic cell line THP-1. The experiment is classed as cell-based. On the procedure:
THP-1 cells are commercially available. Cultured cells can be placed in RPMI complete medium in microtitre plates (e.g. […] in 96 well plates) and after 24 hrs incubation, PMA (10 ng/mi) added to 96 well plate to differentiate THP-1 cells and to determine the effects on TNF-α and IL-10 production. The cells should be pre-treated with cucumber extract at, for example, 200 μg/ml to 25 μg/ml followed by 2 hr LPS (100 ng/ml) stimulation. Post incubation, the cell supernatant is aspirated from each of the wells into sterile micro centrifuge tubes and centrifuged at 1000 rpm for 2-3 mins to settle any cells if present. The cell supernatant is then used for evaluation of presence of TNF-α or IL-10 using ELISA. Sandwich ELISA plates coated with suitable antibody are widely available (e.g. R&D Systems, USA).
A second study indicated even greater activity for idoBR1 in human blood (significant at 0.01 μM) with pre-incubation. […] The data clearly indicate that idoBR1 can inhibit the production of TNF-α in human blood. Thus, it appears that it may be a potent anti-inflammatory agent. It also appears that it may be acting via a novel mechanism distinct from the steroid receptor pathways.

As for `CC#C[C@]1(O)CC[C@H]2[C@@H]3CCC4=CC(=O)CCC4=C3[C@@H](c3ccc(N(C)C)cc3)C[C@@]21C` [Mifepristone, reference compound], under “alone with LPS”, the “effect on TNF-α production from THP-1 cells” value is “greatly amplified”.
By inhibition is commonly meant how much of the control response was suppressed. On to `C[C@@H]1C[C@H]2[C@@H]3CCC4=CC(=O)C=C[C@]4(C)[C@@]3(F)[C@@H](O)C[C@]2(C)[C@@]1(O)C(=O)CO` [dexamethasone, reference compound], for which, for the setting “Homo sapiens, THP-1, 50 μM, identical pretreatment”, the inhibition at 50 µM was above 65%.
